Test results: PubChem BioAssay AID1918994 (Molecular Pharmacology Branch, DTP, NCI, 2023)

These compounds were tested on 292921-168-R-J2-PDC complex spheroid growth (assay: Anticancer human tumor 292921-168-R-J2-PDC patient-derived pancreatic carcinoma cell line growth inhibition [AhR]). Details: second compound 1 µM; first compound 0.003 µM; stronger effect = lower value.
Method in brief: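 Agents were dosed in half-log steps down from roughly clinical Cmax, or from 10 microM where Cmax was unknown, alone and with AhR antagonists. Read-out: percent test/control growth of tumor spheroids containing HUVEC and MSC stromal cells.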
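Note: spheroids exposed to compounds for seven days after three days of growth.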

| SMILES | viability, T/C [%] |
| --- | --- |
| CCc1c2c(nc3ccc(O)cc13)-c1cc3c(c(=O)n1C2)COC(=O)[C@]3(O)CC + Cc1ccccc1N=Nc1ccc(NC(=O)c2ccnn2C)c(C)c1 | 53.6 |

Same assay, conditions: second compound 1 µM; first compound 0.00949 µM; stronger effect = lower value

| SMILES | viability, T/C [%] |
| --- | --- |
| CC(C)CC(NC(=O)C(Cc1ccccc1)NC(=O)c1cnccn1)B(O)O (stereo unspecified) + Cc1ccccc1N=Nc1ccc(NC(=O)c2ccnn2C)c(C)c1 | 23.8 |
| CCc1c2c(nc3ccc(O)cc13)-c1cc3c(c(=O)n1C2)COC(=O)[C@]3(O)CC + Cc1ccccc1N=Nc1ccc(NC(=O)c2ccnn2C)c(C)c1 | 18.9 |

Same assay, conditions: second compound 1 µM; first compound 0.03 µM; stronger effect = lower value

| SMILES | viability, T/C [%] |
| --- | --- |
| CC(C)CC(NC(=O)C(Cc1ccccc1)NC(=O)c1cnccn1)B(O)O (stereo unspecified) + Cc1ccccc1N=Nc1ccc(NC(=O)c2ccnn2C)c(C)c1 | 1.24 |
| CCc1c2c(nc3ccc(O)cc13)-c1cc3c(c(=O)n1C2)COC(=O)[C@]3(O)CC + Cc1ccccc1N=Nc1ccc(NC(=O)c2ccnn2C)c(C)c1 | 9.76 |

Same assay, conditions: second compound 1 µM; first compound 0.0316 µM; stronger effect = lower value

| SMILES | viability, T/C [%] |
| --- | --- |
| COc1cc(Nc2ncc3c(n2)-c2ccc(Cl)cc2C(c2c(F)cccc2OC)=NC3)ccc1C(=O)O + Cc1ccccc1N=Nc1ccc(NC(=O)c2ccnn2C)c(C)c1 | 46.2 |
| Nc1ccccc1NC(=O)c1ccc(CNC(=O)OCc2cccnc2)cc1 + Cc1ccccc1N=Nc1ccc(NC(=O)c2ccnn2C)c(C)c1 | 63.9 |
| O=C(C=Cc1cccc(S(=O)(=O)Nc2ccccc2)c1)NO + Cc1ccccc1N=Nc1ccc(NC(=O)c2ccnn2C)c(C)c1 | 68.8 |
| O=C(c1cc(Cc2n[nH]c(=O)c3ccccc23)ccc1F)N1CCN(C(=O)C2CC2)CC1 + Cc1ccccc1N=Nc1ccc(NC(=O)c2ccnn2C)c(C)c1 | 77.8 |

Same assay, conditions: second compound 1 µM; first compound 0.0949 µM; stronger effect = lower value

| SMILES | viability, T/C [%] |
| --- | --- |
| CC(C)CC(NC(=O)C(Cc1ccccc1)NC(=O)c1cnccn1)B(O)O (stereo unspecified) + Cc1ccccc1N=Nc1ccc(NC(=O)c2ccnn2C)c(C)c1 | 0.41 |
| CCc1c2c(nc3ccc(O)cc13)-c1cc3c(c(=O)n1C2)COC(=O)[C@]3(O)CC + Cc1ccccc1N=Nc1ccc(NC(=O)c2ccnn2C)c(C)c1 | 5.35 |

Same assay, conditions: second compound 1 µM; first compound 0.1 µM; stronger effect = lower value

| SMILES | viability, T/C [%] |
| --- | --- |
| COc1cc(Nc2ncc3c(n2)-c2ccc(Cl)cc2C(c2c(F)cccc2OC)=NC3)ccc1C(=O)O + Cc1ccccc1N=Nc1ccc(NC(=O)c2ccnn2C)c(C)c1 | 34.2 |
| Nc1ccccc1NC(=O)c1ccc(CNC(=O)OCc2cccnc2)cc1 + Cc1ccccc1N=Nc1ccc(NC(=O)c2ccnn2C)c(C)c1 | 54.5 |
| O=C(C=Cc1cccc(S(=O)(=O)Nc2ccccc2)c1)NO + Cc1ccccc1N=Nc1ccc(NC(=O)c2ccnn2C)c(C)c1 | 59.1 |
| O=C(c1cc(Cc2n[nH]c(=O)c3ccccc23)ccc1F)N1CCN(C(=O)C2CC2)CC1 + Cc1ccccc1N=Nc1ccc(NC(=O)c2ccnn2C)c(C)c1 | 67.8 |

Same assay, conditions: second compound 1 µM; first compound 0.3 µM; stronger effect = lower value

| SMILES | viability, T/C [%] |
| --- | --- |
| CC(C)CC(NC(=O)C(Cc1ccccc1)NC(=O)c1cnccn1)B(O)O (stereo unspecified) + Cc1ccccc1N=Nc1ccc(NC(=O)c2ccnn2C)c(C)c1 | 0.93 |
| CCc1c2c(nc3ccc(O)cc13)-c1cc3c(c(=O)n1C2)COC(=O)[C@]3(O)CC + Cc1ccccc1N=Nc1ccc(NC(=O)c2ccnn2C)c(C)c1 | 2.94 |

Same assay, conditions: second compound 1 µM; first compound 0.316 µM; stronger effect = lower value

| SMILES | viability, T/C [%] |
| --- | --- |
| COc1cc(Nc2ncc3c(n2)-c2ccc(Cl)cc2C(c2c(F)cccc2OC)=NC3)ccc1C(=O)O + Cc1ccccc1N=Nc1ccc(NC(=O)c2ccnn2C)c(C)c1 | 45.8 |
| Nc1ccccc1NC(=O)c1ccc(CNC(=O)OCc2cccnc2)cc1 + Cc1ccccc1N=Nc1ccc(NC(=O)c2ccnn2C)c(C)c1 | 52.6 |
| O=C(C=Cc1cccc(S(=O)(=O)Nc2ccccc2)c1)NO + Cc1ccccc1N=Nc1ccc(NC(=O)c2ccnn2C)c(C)c1 | 54.8 |
| O=C(c1cc(Cc2n[nH]c(=O)c3ccccc23)ccc1F)N1CCN(C(=O)C2CC2)CC1 + Cc1ccccc1N=Nc1ccc(NC(=O)c2ccnn2C)c(C)c1 | 79.2 |

Same assay, conditions: second compound 1 µM; first compound 1 µM; stronger effect = lower value

| SMILES | viability, T/C [%] |
| --- | --- |
| COc1cc(Nc2ncc3c(n2)-c2ccc(Cl)cc2C(c2c(F)cccc2OC)=NC3)ccc1C(=O)O + Cc1ccccc1N=Nc1ccc(NC(=O)c2ccnn2C)c(C)c1 | 42.7 |
| Nc1ccccc1NC(=O)c1ccc(CNC(=O)OCc2cccnc2)cc1 + Cc1ccccc1N=Nc1ccc(NC(=O)c2ccnn2C)c(C)c1 | 35.9 |
| O=C(C=Cc1cccc(S(=O)(=O)Nc2ccccc2)c1)NO + Cc1ccccc1N=Nc1ccc(NC(=O)c2ccnn2C)c(C)c1 | 38.8 |
| O=C(c1cc(Cc2n[nH]c(=O)c3ccccc23)ccc1F)N1CCN(C(=O)C2CC2)CC1 + Cc1ccccc1N=Nc1ccc(NC(=O)c2ccnn2C)c(C)c1 | 73.5 |

Same assay, conditions: second compound 1 µM; first compound 3.16 µM; stronger effect = lower value

| SMILES | viability, T/C [%] |
| --- | --- |
| COc1cc(Nc2ncc3c(n2)-c2ccc(Cl)cc2C(c2c(F)cccc2OC)=NC3)ccc1C(=O)O + Cc1ccccc1N=Nc1ccc(NC(=O)c2ccnn2C)c(C)c1 | 40.9 |
